Test results published in patent US20190388421A1, “NOVEL COMPOUNDS AND PHARMACEUTICAL COMPOSITIONS THEREOF FOR THE TREATMENT OF FIBROSIS” (Galapagos NV, priority 2016, published 2019).
pEC50, pIC50: −log10 of the molar value.

Tests used:
[1] = biological target: T1, human GPCR sphingosine 1-phosphate receptor 2 (S1PR2) (Homo sapiens, UniProt O95136); experiment: S1P2 antagonist assay (Ca2+ flux, S1P at EC80); format: cell-based; details: CHO-S1PR2 cells, highest concentration 20 μM
T1 construct: host or cells: CHO
T1 sequence (O95136 whole entry): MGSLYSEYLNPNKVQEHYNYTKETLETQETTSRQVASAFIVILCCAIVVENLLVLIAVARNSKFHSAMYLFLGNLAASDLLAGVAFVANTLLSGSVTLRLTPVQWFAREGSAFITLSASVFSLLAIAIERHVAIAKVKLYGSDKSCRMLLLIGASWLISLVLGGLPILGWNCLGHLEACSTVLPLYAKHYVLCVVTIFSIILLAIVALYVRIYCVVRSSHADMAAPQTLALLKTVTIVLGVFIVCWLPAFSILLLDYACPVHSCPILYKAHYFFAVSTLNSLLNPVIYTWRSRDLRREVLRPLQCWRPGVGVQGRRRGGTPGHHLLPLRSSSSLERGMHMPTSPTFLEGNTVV
Summary of the method: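 CHO cells stably overexpressing human S1PR2, serum-starved 1 h and loaded with Fluo8 dye, were read for 3 min after compound addition, then stimulated with S1P at EC80 after 15 min at 37 °C. Top concentration 20 μM in a 10-point 1/3 series; Ca2+ fluorescence ratio normalized to vehicle and S1P EC80, giving EC50.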

[2] = biological target: T2, human GPCR sphingosine 1-phosphate receptor 1 (S1PR1) (Homo sapiens, UniProt P21453); experiment: S1PR1 selectivity assay (Ca2+ flux, antagonist); format: cell-based; details: S1P1 antagonist EC50, CHO cells overexpressing human S1PR1 and Gq protein
T2 construct: host or cells: CHO
T2 sequence (P21453 whole entry): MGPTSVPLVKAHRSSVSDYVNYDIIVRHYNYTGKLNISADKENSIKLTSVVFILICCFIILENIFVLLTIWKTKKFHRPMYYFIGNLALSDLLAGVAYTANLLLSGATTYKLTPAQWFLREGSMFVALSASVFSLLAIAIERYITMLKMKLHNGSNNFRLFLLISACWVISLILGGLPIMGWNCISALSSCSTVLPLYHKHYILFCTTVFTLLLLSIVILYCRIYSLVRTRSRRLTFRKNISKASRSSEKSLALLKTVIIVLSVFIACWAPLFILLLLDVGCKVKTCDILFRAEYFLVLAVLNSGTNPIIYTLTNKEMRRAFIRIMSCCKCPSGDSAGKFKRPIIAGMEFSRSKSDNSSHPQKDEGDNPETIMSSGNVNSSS
Summary of the method: (§1)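 CHO cells stably overexpressing human S1PR1 or S1PR5 with Gq were preincubated with compound 15 min at 37 °C, then stimulated with S1P at EC80 (S1PR1) or an S1PR5-specific agonist (S1PR5). Ca2+ fluorescence was read for 3 min; 10-point 1/3 dilutions from 20 μM final, normalized to vehicle and EC80 trigger, gave EC50.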

HFL-1 cells [3] = experiment: IL8 assay in the presence of Human Serum Albumin; format: cell-based; details: HFL1, S1P (5 μM) induced IL-8, HFL-1 cells, with 2% HSA, read-out: HSA IL8 EC50
Procedure: (§2) S1P is able to induce cytokines such as IL-8 in a process that is S1PR2 dependent (O'Sullivan et al, 2014; Bruennert et al, 2015). This assay is designed to test inhibitory activity of compounds on S1P induced IL-8 on HFL-1 cells, a human fetal lung fibroblast cell line.
To evaluate the influence of plasma protein binding of Sip as well as compound, the S1P induced IL-8 levels were evaluated in presence of 2% Human Serum Albumin (HSA, equivalent to 40% human serum). By adding 2% HSA, which affects both the activity of the compounds as well as the S1P potency, the physiological condition are reproduced and the shift in potency expected under in vivo serum conditions can be measured.
(§3) Human Fetal Lung cells (HFL-1) are seeded in 96 well plates in growth medium (F12K+10% heat inactivated FBS+1% Pen/strep). After overnight incubation at 37° C., 5% CO2 cells are refreshed with starvation medium with HSA (F12K+1% FBS+1% Pen/strep+1.95% HSA). On day three, compounds are added (10 point serial dilution, 30 μM highest concentration, 1/3 dilution, 0.3% DMSO final) and plates are incubated for 1 h at 37° C., 5% CO2. Subsequently S1P at 5 μM final concentration is added and plates are incubated for 16 to 24 h at 37° C., 5% CO2 after which the supernatant was collected. IL-8 levels in the supernatant are determined with the IL-8 ELISA of R&D systems.

[4] = biological target: T3, human GPCR sphingosine 1-phosphate receptor 5 (S1PR5) (Homo sapiens, UniProt Q9H228); experiment: S1PR5 selectivity assay (Ca2+ flux, antagonist, S1PR5 specific agonist trigger); format: cell-based; details: S1P5 antagonist EC50, CHO cells overexpressing human S1PR5 and Gq protein
T3 construct: host or cells: CHO
T3 sequence (Q9H228 whole entry): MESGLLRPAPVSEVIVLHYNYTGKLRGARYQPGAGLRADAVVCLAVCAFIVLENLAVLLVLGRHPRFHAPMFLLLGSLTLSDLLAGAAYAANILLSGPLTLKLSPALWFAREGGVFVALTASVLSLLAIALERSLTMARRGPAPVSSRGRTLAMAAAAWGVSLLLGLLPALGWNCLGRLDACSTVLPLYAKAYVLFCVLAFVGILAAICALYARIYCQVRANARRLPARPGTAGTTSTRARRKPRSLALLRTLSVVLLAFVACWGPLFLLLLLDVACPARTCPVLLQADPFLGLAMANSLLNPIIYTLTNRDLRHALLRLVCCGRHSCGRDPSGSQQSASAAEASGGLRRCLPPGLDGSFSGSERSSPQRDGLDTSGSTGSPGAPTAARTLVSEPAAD
Summary of the method: as §1

HFL-1 cells [5] = experiment: IL8 assay (S1P induced IL-8 production); format: cell-based; details: Homo sapiens, HFL1; S1P (1 μM) induced IL-8, HFL-1 cells, without HSA
Procedure: as §2
as §3, with “medium without” for “medium with”, “FBS+1% Pen/strep).” for “FBS+1% Pen/strep+1.95% HSA).”, “concentration, ⅓” for “concentration, 1/3”, “for one hour” for “for 1 h”, “at 1” for “at 5”, “24 hours” for “24 h”

S1PR2 = biological target: T4, S1PR2 (Homo sapiens, UniProt O95136); experiment: GTP-γS binding assay ([35S]GTPγS, S1P at EC80, S1PR2 membranes); format: biochemical; details: membranes from stable cell line over expressing S1PR2, read-out: S1PR2 EC
T4 construct: expressed in transfected cells
T4 sequence (O95136 whole entry): as the sequence (O95136 whole entry) above
Summary of the method: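 Compounds tested against S1P at its EC80 on membranes (2.5 μg/well) from a stable S1PR2-overexpressing line, pre-incubated with 1 μM GDP 15 min at 4 °C. Buffer: 20 mM Tris pH 7.5, 10 mM MgCl2, 100 mM NaCl, 0.1% fatty-acid-free BSA, 50 ug/ml saponin. Incubated 4 h at room temperature; [35S]GTPγS binding read by WGA SPA beads.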

Row | SMILES | pEC50 [1] | pEC50 [2] | pIC50 (HFL-1 cells [3]) | pEC50 [4] | pEC50 (HFL-1 cells [5]) | pEC50 (S1PR2)
1 | CCOc1cc(NC(=O)NCc2cc(C)c(-c3cn(C)nc3C(F)(F)F)nn2)cc(C(F)(F)F)n1 [Compound 1, 1-(2-Ethoxy-6-trifluoromethyl-pyridin-4-yl)-3-[5-methyl-6-(1-methyl-3-trifluoromethyl-1H-pyrazol-4-yl)-pyridazin-3-ylmethyl]-urea] | 8.02 | 5.22 | 7.21 | 5.18 | 8.66 | 7.48
2 | CCOc1cc(NC(=O)NCc2cc(C)c(-c3cn(C)nc3C(F)(F)F)nn2)cc(Cl)n1 [Compound 2, 1-(2-Chloro-6-ethoxy-pyridin-4-yl)-3-[5-methyl-6-(1-methyl-3-trifluoromethyl-1H-pyrazol-4-yl)-pyridazin-3-ylmethyl]-urea] | 8.07 | 5.34 | 7.60 | 5.34 | 8.82 | 7.65
3 | CCOc1cc(NC(=O)NC(C)c2cc(C)c(-c3cn(C)nc3C(F)(F)F)nn2)cc(Cl)n1 (stereo not drawn) [Compound 3, 1-(2-chloro-6-ethoxy-4-pyridyl)-3-[1-[5-methyl-6-[1-methyl-3-(trifluoromethyl)pyrazol-4-yl]pyridazin-3-yl]ethyl]urea] | 7.59 | ≤ 4.70 | 6.32 | 5.18 | 7.66 | 6.94
4 | Cc1cc(CNC(=O)Nc2cc(OCCO)nc(C(F)(F)F)c2)nnc1-c1cn(C)nc1C(F)(F)F [Compound 4, 1-[2-(2-hydroxyethoxy)-6-(trifluoromethyl)-4-pyridyl]-3-[[5-methyl-6-[1-methyl-3-(trifluoromethyl)pyrazol-4-yl]pyridazin-3-yl]methyl]urea] | 6.46 | ≤ 4.70 | 6.19 | ≤ 4.70 | 6.63 | 6.06
5 | Cc1cc(CNC(=O)Nc2cc(OCC(O)CO)nc(C(F)(F)F)c2)nnc1-c1cn(C)nc1C(F)(F)F (stereo not drawn) [Compound 5, 1-[2-(2,3-dihydroxypropoxy)-6-(trifluoromethyl)-4-pyridyl]-3-[[5-methyl-6-[1-methyl-3-(trifluoromethyl)pyrazol-4-yl]pyridazin-3-yl]methyl]urea] | 5.18 | ≤ 4.70 | 5.00 | ≤ 4.70 | 5.81 | 4.95
6 | CCOc1ncc(NC(=O)NCc2cc(C)c(-c3cn(C)nc3C(F)(F)F)nn2)cc1Cl [Compound 8, 1-(5-chloro-6-ethoxy-3-pyridyl)-3-[[5-methyl-6-[1-methyl-3-(trifluoromethyl)pyrazol-4-yl]pyridazin-3-yl]methyl]urea] | 7.66 | ≤ 4.70 | 6.77 | ≤ 4.70 | 7.08 | 6.51
7 | Cc1cc(CNC(=O)Nc2cc(Cl)nc(OCCF)c2)nnc1-c1cn(C)nc1C(F)(F)F [Compound 16, 1-[2-chloro-6-(2-fluoroethoxy)-4-pyridyl]-3-[[5-methyl-6-[1-methyl-3-(trifluoromethyl)pyrazol-4-yl]pyridazin-3-yl]methyl]urea] | 7.97 |  | 7.13 |  | 8.34 | 7.20
8 | Cc1cc(CNC(=O)Nc2cc(Cl)nc(Cl)c2)nnc1-c1cn(C)nc1C(F)(F)F [Compound 21, 1-(2,6-dichloro-4-pyridyl)-3-[[5-methyl-6-[1-methyl-3-(trifluoromethyl)pyrazol-4-yl]pyridazin-3-yl]methyl]urea] | 7.76 |  | 6.41 |  | 7.95 | 6.87
9 | Cc1cc(CNC(=O)Nc2cc(OCC3CC(F)(F)C3)nc(C(F)(F)F)c2)nnc1-c1cn(C)nc1C(F)(F)F [Compound 42, 1-[2-[(3,3-difluorocyclo-butyl)methoxy]-6-(trifluoromethyl)-4-pyridyl]-3-[[5-methyl-6-[1-methyl-3-(trifluoromethyl)pyrazol-4-yl]pyridazin-3-yl]methyl]urea] | 6.53 |  | 5.91 |  | 7.29 | 6.22
10 | CCOc1cc(NC(=O)NCc2cc(C)c(-c3cn(CC(C)O)nc3C(F)(F)F)nn2)cc(C(F)(F)F)n1 (stereo not drawn) [Compound 56, 1-[2-ethoxy-6-(trifluoromethyl)-4-pyridyl]-3-[[6-[1-(2-hydroxypropyl)-3-(trifluoromethyl)pyrazol-4-yl]5-methyl-pyridazin-3-yl]methyl]urea] | 7.95 |  | 7.01 |  | 8.34 | 6.89
11 | CCOc1cc(NC(=O)NCc2cc(C)c(-c3cn(C)nc3C)nn2)cc(Cl)n1 [Compound 68] | 7.59 | ≤ 4.70 | 5.46 |  | 6.81 | 6.96
12 | Cc1cc(CNC(=O)Nc2cc(C(F)(F)F)nc(OCCO)c2C)nnc1-c1cn(C)nc1C(F)(F)F [Compound 73, 1-[2-(2-hydroxyethoxy)-3-methyl-6-(trifluoromethyl)-4-pyridyl]-3-[[5-methyl-6-[1-methyl-3-(trifluoromethyl)pyrazol-4-yl]pyridazin-3-yl]methyl]urea] | 7.08 | ≤ 4.70 | 6.59 |  | 7.29 | 6.80
13 | CCOc1cc(NC(=O)NCc2cc(C)c(N3CC(F)(F)C3)nn2)cc(Cl)n1 [Compound 83, 1-(2-Chloro-6-ethoxy-pyridin-4-yl)-3-[6-(3,3-difluoro-azetidin-1-yl)-5-methyl-pyridazin-3-ylmethyl]-urea] | 7.96 |  | 4.52 |  | 7.18 | 6.80
14 | CCOc1ncc(NC(=O)NCc2cc(C)c(N3CC(C)OC(C)C3)nn2)cc1C(F)(F)F (stereo not drawn) [Compound 85, 1-[[6-(2,6-dimethyl-morpholin-4-yl)-5-methyl-pyridazin-3-yl]methyl]-3-[6-ethoxy-5-(trifluoromethyl)-3-pyridyl]urca] | 6.31 |  | 5.00 |  | 6.37 | 5.45
15 | CCOc1cc(NC(=O)NCc2cc(C)c(N3C[C@@H](C)O[C@@H](C)C3)nn2)cc(C)n1 [Compound 93, 1-[[6-[(2R,6S)-2,6-dimethyl-morpholin-4-yl]-5-methyl-pyridazin-3-yl]methyl]-3-(2-ethoxy-6-methyl-4-pyridyl)urca] | 5.98 |  | 5.66 | 5.18 | 6.12 | 5.66
16 | CCOc1nc(C)cc(NC(=O)NCc2cc(C)c(N3C[C@@H](C)O[C@@H](C)C3)nn2)c1Cl [Compound 94, 1-(3-chloro-2-ethoxy-6-methyl-4-pyridyl)-3-[[6-[(2R,6S)-2,6-dimethyl-morpholin-4-yl]-5-methyl-pyridazin-3-yl]methyl]urea] | 7.57 |  | 5.23 | 6.32 | 6.99 | 6.29
17 | Cc1cc(CNC(=O)Nc2cc(Cl)nc(OCC(F)F)c2)nnc1N1CCOC(CN(C)C)C1 (stereo not drawn) [Compound 97, 1-[2-chloro-6-(2,2-difluoroethoxy)-4-pyridyl]-3-[[6-[2-[(dimethylamino)methyl]morpholin-4-yl]-5-methyl-pyridazin-3-yl]methyl]urea] | 7.09 |  | 5.75 |  | 7.21 | 6.56
